± gives the standard deviation of the averaged measurements.
Key:
BI-2536 = compound: CC[C@@H]1C(=O)N(C)c2cnc(Nc3ccc(C(=O)NC4CCN(C)CC4)cc3OC)nc2N1C1CCCC1 [BI-2536]; test: surviving fraction relative to DMSO-only wells; higher = less growth inhibition; details: exposure time: 5 days
Procedure, shortened: (§1)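 A line counted only if its three screens reached replicate Pearson r >0.7 and median Z' >0.3. Tumour cells in log phase were seeded at 250–500 per well in 384-well plates and, after 24 hours, kept in continuous contact with inhibitors at 0.5, 1, 5, 10, 50, 100, 500 and 1000 nM for five days. Surviving fraction was taken from CellTiter-Glo luminescence relative to the median of DMSO-only wells.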

MDV3100 = compound: CNC(=O)c1ccc(N2C(=S)N(c3ccc(C#N)c(C(F)(F)F)c3)C(=O)C2(C)C)cc1F [MDV3100]; test: as above; details: exposure time: 5 days
Procedure, shortened: as §1

[1] = compound: Cn1cc(C2=Nc3cc(NC(=O)C(N)C4CCCCC4)cc4c3C2=CNNC4=O)cn1; test: area under dose-response curve of surviving fraction (unscaled, Aref=0) (surviving fraction x log10(nM)); higher = more resistant; details: exposure time: 5 days; dose range 0.5-1000 nM
Procedure, shortened: (§2)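 Tumour cell lines in 384-well plates were exposed for five days to eight inhibitor concentrations from 0.5 to 1000 nM. Viability was read by CellTiter-Glo luminescence, normalised to DMSO-only wells, in three screens per line. Dose-response survival curves were fitted to surviving fractions by 3-parameter logistic regression in the drc R package. Area under the curve is the unscaled activity area (Aref = 0) over log10 dose.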

TIOGUANINE = compound: Nc1nc2[nH]cnc2c(=S)[nH]1 [TIOGUANINE]; test: as above; details: exposure time: 5 days; dose range 0.5-1000 nM
Procedure, shortened: as §2

SAPACITABINE = compound: CCCCCCCCCCCCCCCC(=O)Nc1ccn([C@@H]2O[C@H](CO)[C@@H](O)[C@@H]2C#N)c(=O)n1 [SAPACITABINE]; test: as above; details: exposure time: 5 days; dose range 0.5-1000 nM
Procedure, shortened: as §2

AFATINIB = compound: CN(C)C/C=C/C(=O)Nc1cc2c(Nc3ccc(F)c(Cl)c3)ncnc2cc1O[C@H]1CCOC1 [AFATINIB]; test: as above; details: exposure time: 5 days; dose range 0.5-1000 nM
Procedure, shortened: as §2

Test System | surviving fraction (BI-2536; 0.5 nM) | surviving fraction (BI-2536; 1 nM) | surviving fraction (BI-2536; 5 nM) | surviving fraction (BI-2536; 10 nM) | surviving fraction (BI-2536; 50 nM) | surviving fraction (BI-2536; 100 nM) | surviving fraction (BI-2536; 500 nM) | surviving fraction (BI-2536; 1000 nM) | surviving fraction (MDV3100; 0.5 nM) | surviving fraction (MDV3100; 1 nM) | surviving fraction (MDV3100; 5 nM) | surviving fraction (MDV3100; 10 nM) | surviving fraction (MDV3100; 50 nM) | surviving fraction (MDV3100; 100 nM) | surviving fraction (MDV3100; 500 nM) | surviving fraction (MDV3100; 1000 nM) | area under dose-response curve [1] | area under dose-response curve (TIOGUANINE) | area under dose-response curve (SAPACITABINE) | area under dose-response curve (AFATINIB)
22RV1 PROSTATE | 1.01 ± 0.1 | 0.973 ± 0.029 | 0.1 ± 0.016 | 0.085 ± 0.012 | 0.159 ± 0.0085 | 0.221 ± 0.012 | 0.216 ± 0.013 | 0.213 ± 0.014 | 0.953 ± 0.067 | 0.954 ± 0.061 | 0.997 ± 0.051 | 0.938 ± 0.066 | 0.934 ± 0.12 | 0.968 ± 0.04 | 0.862 ± 0.21 | 0.781 ± 0.27 | 2.97 | 3.28 | 2.46 | 3.06
93VU HEADNECK | 1.11 ± 0.12 | 1.05 ± 0.06 | 0.507 ± 0.077 | 0.27 ± 0.012 | 0.258 ± 0.0056 | 0.333 ± 0.056 | 0.205 ± 0.023 | 0.123 ± 0.0066 | 0.848 ± 0.096 | 0.876 ± 0.058 | 1.05 ± 0.099 | 0.994 ± 0.12 | 1.07 ± 0.15 | 1.04 ± 0.22 | 0.887 ± 0.03 | 0.771 ± 0.016 | 3.08 | 3.19 | 2.69 | 1.9
143B BONE | 1.01 ± 0.023 | 0.954 ± 0.0071 | 0.117 ± 0.013 | 0.0745 ± 0.005 | 0.082 ± 0.0042 | 0.114 ± 0.013 | 0.254 ± 0.0014 | 0.235 ± 0.025 | 1.07 ± 0.061 | 1.1 ± 0.1 | 1.09 ± 0.086 | 1.09 ± 0.088 | 1.13 ± 0.12 | 1.13 ± 0.11 | 1.11 ± 0.11 | 1.1 ± 0.093 | 2.8 | 3.27 |  | 3.29
A549 LUNG | 1.02 ± 0.056 | 1 ± 0.034 | 0.48 ± 0.016 | 0.28 ± 0.0067 | 0.133 ± 0.0046 | 0.0943 ± 0.0074 | 0.0457 ± 0.0071 | 0.039 ± 0.003 | 0.971 ± 0.011 | 0.941 ± 0.029 | 0.978 ± 0.011 | 0.934 ± 0.032 | 1 ± 0.038 | 1.01 ± 0.015 | 1.01 ± 0.033 | 0.983 ± 0.04 |  | 3.21 | 2.57 | 3.35
ASKA SYNOVIAL | 0.962 ± 0.057 | 0.919 ± 0.066 | 0.228 ± 0.012 | 0.231 ± 0.0032 | 0.256 ± 0.012 | 0.219 ± 0.012 | 0.185 ± 0.0081 | 0.238 ± 0.011 | 1.01 ± 0.051 | 0.966 ± 0.037 | 1.05 ± 0.017 | 0.59 ± 0.051 | 1.15 ± 0.13 | 1.07 ± 0.065 | 1.14 ± 0.095 | 0.678 ± 0.079 | 2.3 | 3.56 | 2.18 | 3.14
BT20 BREAST | 1.01 ± 0.19 | 0.758 ± 0.17 | 0.0813 ± 0.018 | 0.0613 ± 0.031 | 0.0983 ± 0.025 | 0.109 ± 0.031 | 0.135 ± 0.056 | 0.154 ± 0.052 | 1.1 ± 0.12 | 1.15 ± 0.066 | 1.11 ± 0.042 | 1.14 ± 0.029 | 0.907 ± 0.036 | 1.13 ± 0.068 | 0.969 ± 0.1 | 1.02 ± 0.03 | 3.17 | 3.43 | 1.76 | 
BT549 BREAST | 0.905 ± 0.14 | 0.923 ± 0.052 | 0.229 ± 0.021 | 0.132 ± 0.038 | 0.0863 ± 0.0081 | 0.0867 ± 0.011 | 0.0667 ± 0.011 | 0.0373 ± 0.0093 | 0.957 ± 0.078 | 1.02 ± 0.089 | 1 ± 0.11 | 0.939 ± 0.0099 | 1.01 ± 0.036 | 0.996 ± 0.099 | 0.992 ± 0.076 | 0.98 ± 0.057 | 2.19 | 3.29 | 1.85 | 3.09
CAL51 BREAST | 0.966 ± 0.057 | 0.87 ± 0.062 | 0.0793 ± 0.0041 | 0.0425 ± 0.0026 | 0.0333 ± 0.0013 | 0.0258 ± 0.0033 | 0.0175 ± 0.00087 | 0.0207 ± 0.00076 | 0.969 ± 0.025 | 0.944 ± 0.014 | 0.985 ± 0.016 | 0.976 ± 0.013 | 0.984 ± 0.029 | 1.05 ± 0.042 | 0.978 ± 0.11 | 0.979 ± 0.082 | 2.86 | 3.31 | 2.32 | 3.19
CAL72 BONE | 1 ± 0.019 | 0.742 ± 0.12 | 0.2 ± 0.021 | 0.147 ± 0.033 | 0.12 ± 0.026 | 0.0987 ± 0.015 | 0.104 ± 0.019 | 0.0927 ± 0.009 | 0.965 ± 0.087 | 0.992 ± 0.041 | 1 ± 0.073 | 1 ± 0.021 | 1.08 ± 0.076 | 0.986 ± 0.17 | 1.05 ± 0.13 | 1.02 ± 0.15 | 2.58 | 3.66 | 2.07 | 3.5
CAL120 BREAST | 0.941 ± 0.025 | 0.431 ± 0.034 | 0.176 ± 0.0061 | 0.151 ± 0.013 | 0.126 ± 0.01 | 0.113 ± 0.0079 | 0.0725 ± 0.0027 | 0.0657 ± 0.0062 | 0.906 ± 0.066 | 0.905 ± 0.025 | 0.931 ± 0.051 | 0.925 ± 0.077 | 0.941 ± 0.058 | 0.935 ± 0.042 | 0.953 ± 0.059 | 0.955 ± 0.025 | 2.8 | 3.05 | 2.46 | 2.87
CASKI CERVIX | 0.739 ± 0.024 | 0.427 ± 0.068 | 0.0607 ± 0.011 | 0.0583 ± 0.0064 | 0.0967 ± 0.015 | 0.075 | 0.0153 ± 0.0021 | 0.0183 ± 0.00058 | 0.904 ± 0.031 | 0.894 ± 0.047 | 0.99 ± 0.026 | 0.903 ± 0.059 | 0.944 ± 0.022 | 1.08 ± 0.073 | 0.95 ± 0.046 | 0.992 ± 0.072 | 2.04 | 3.1 | 2.91 | 0.986
CHLA90 AUTONOMIC GANGLIA | 1.07 ± 0.045 | 0.978 ± 0.062 | 0.408 ± 0.032 | 0.203 ± 0.01 | 0.167 ± 0.027 | 0.135 ± 0.015 | 0.132 ± 0.0078 | 0.0863 ± 0.0025 | 0.946 ± 0.11 | 0.812 ± 0.07 | 0.878 ± 0.077 | 0.362 ± 0.028 | 1 ± 0.078 | 0.94 ± 0.12 | 1 ± 0.076 | 0.625 ± 0.14 | 2.37 | 3.12 | 2.09 | 2.76
CME SYNOVIAL | 1.02 ± 0.077 | 0.988 ± 0.11 | 0.683 ± 0.18 | 0.378 ± 0.031 | 0.278 ± 0.023 | 0.237 ± 0.01 | 0.259 ± 0.004 | 0.279 ± 0.011 | 1.2 ± 0.075 | 0.852 ± 0.11 | 1.09 ± 0.089 | 0.18 ± 0.044 | 1.22 ± 0.053 | 1.09 ± 0.13 | 1.16 ± 0.1 | 0.451 ± 0.068 |  | 3.97 | 1.45 | 4.36
COLO320DM LARGE INTESTINE | 1.17 ± 0.018 | 1.08 ± 0.015 | 1.09 ± 0.051 | 0.836 ± 0.034 | 0.191 ± 0.019 | 0.0987 ± 0.0025 | 0.105 ± 0.011 | 0.109 ± 0.0025 | 1.18 ± 0.14 | 0.995 ± 0.087 | 1.13 ± 0.022 | 0.533 ± 0.021 | 1.13 ± 0.086 | 1.042 ± 0.0052 | 1.12 ± 0.057 | 0.754 ± 0.052 | 3.21 | 3.52 | 2.44 | 3.24
DU4475 BREAST | 0.997 ± 0.25 | 1.04 ± 0.051 | 0.536 ± 0.15 | 0.233 ± 0.047 | 0.0763 ± 0.027 | 0.057 ± 0.015 | 0.031 ± 0.0053 | 0.027 ± 0.002 | 0.806 ± 0.11 | 0.938 ± 0.086 | 0.832 ± 0.098 | 0.992 ± 0.052 | 0.958 ± 0.074 | 0.907 ± 0.089 | 0.965 ± 0.11 | 0.933 ± 0.046 | 2.46 | 2.55 | 1.86 | 

Reference: the supplement of paper PMC6045584
